According to patent US20130096119A1, “Isoquinolin-3-Ylurea Derivatives” (priority 2010, published 2013):
In brackets after ≈: the same amount, converted by molar mass.

System: S. pneumoniae ATCC 49619
Assay: Minimal inhibitory concentration (MIC) by microdilution method (CLSI M7-A7)
Assay type: cell-based, Streptococcus pneumoniae
Conditions: Streptococcus pneumoniae, ATCC49619, cation-adjusted Mueller-Hinton Broth supplemented with 3% (v/v) lysed horse blood
Procedure, shortened: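 Broth microdilution per CLSI M7-A7 in cation-adjusted Mueller-Hinton broth, supplemented with 3% (v/v) lysed horse blood for S. pneumoniae; MIC reported in mg/l.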

Row | Structure (SMILES) | MIC
1 | CCNC(=O)Nc1cc2cccc(Nc3ccccn3)c2cn1 [Example 146, 1-ethyl-3-[8-(pyridin-2-ylamino)-isoquinolin-3-yl]-urea] | 4 µg/mL (≈ 13 µM)
2 | CCNC(=O)Nc1cc2cccc(Nc3ccc(OC)nc3)c2cn1 [Example 214, 1-ethyl-3-[8-(6-methoxy-pyridin-3-ylamino)-isoquinolin-3-yl]-urea] | 16 µg/mL (≈ 47.4 µM)
3 | CCNC(=O)Nc1cc2cccc(CNc3ncccn3)c2cn1 [Example 304, 1-ethyl-3-[8-(pyrimidin-2-ylaminomethyl)-isoquinolin-3-yl]-urea] | 4 µg/mL (≈ 12.4 µM)
4 | CCNC(=O)Nc1cc2cc(NCc3ccc4c(c3)OCCN4C)cc(C)c2cn1.Cl [Example 130, 1-ethyl-3-{8-methyl-6-[(4-methyl-3,4-dihydro-2H-benzo[1,4]oxazin-7-ylmethyl)-amino]isoquinolin-3-yl}-urea hydrochloride] | 8 µg/mL
5 | CCNC(=O)Nc1cc2cc(NCc3ccc4ccn(C)c4c3)cc(C)c2cn1.Cl [Example 135, 1-ethyl-3-{8-methyl-6-[((1-methyl-1H-indol-6-yl)methyl)-amino]-isoquinolin-3-yl}-urea hydrochloride] | 16 µg/mL
6 | CCNC(=O)Nc1cc2cc(NCc3ccc(NC(C)=O)cc3)cc(C)c2cn1 [Example 137, N-(4-{[3-(3-ethyl-ureido)-8-methyl-isoquinolin-6-ylamino]-methyl}-phenyl)-acetamide] | 8 µg/mL (≈ 20.4 µM)
7 | CCNC(=O)Nc1cc2cccc(Nc3ccncc3F)c2cn1.Cl [Example 157, 1-ethyl-3-[8-(3-fluoro-pyridin-4-ylamino)-isoquinolin-3-yl]-urea hydrochloride] | 2 µg/mL
8 | CCNC(=O)Nc1cc2cc(-c3cn[nH]c3)cc(C)c2cn1 [Example 28, 1-ethyl-3-[8-methyl-6-(1H-pyrazol-4-yl)-isoquinolin-3-yl]-urea] | 2 µg/mL (≈ 6.77 µM)
9 | CCNC(=O)Nc1cc2c(-c3c[nH]cn3)ccc(Cl)c2cn1 [Example 288, 1-[8-chloro-5-(1H-imidazol-4-yl)-isoquinolin-3-yl]-3-ethyl-urea] | 2 µg/mL (≈ 6.33 µM)
10 | CCNC(=O)Nc1cc2cccc(Nc3cc(C)ccn3)c2cn1.Cl [Example 162, 1-ethyl-3-[8-(4-methyl-pyridin-2-ylamino)-isoquinolin-3-yl]-urea hydrochloride] | 2 µg/mL
11 | CCNC(=O)Nc1cc2cccc(Nc3cccc(CC(=O)O)c3)c2cn1 [Example 209, {3-[3-(3-ethyl-ureido)-isoquinolin-8-ylamino]-phenyl}-acetic acid] | 4 µg/mL (≈ 11 µM)

Further lines, results first:

Row | MIC | Structure (SMILES)
12 | 2 µg/mL (≈ 6.49 µM) | CCNC(=O)Nc1cc2cccc(Nc3cnccn3)c2cn1 [Example 148, 1-ethyl-3-[8-(pyrazin-2-ylamino)-isoquinolin-3-yl]-urea]
13 | 1 µg/mL (≈ 3.07 µM) | CCNC(=O)Nc1cc2c(-c3cscc3C)ccc(C)c2cn1 [Example 64, 1-ethyl-3-[8-methyl-5-(4-methyl-thiophen-3-yl)-isoquinolin-3-yl]-urea]
14 | 0.5 µg/mL (≈ 1.3 µM) | CCNC(=O)Nc1cc2cc(-c3cccc(S(N)(=O)=O)c3)cc(C)c2cn1 [Example 22, 3-[3-(3-ethyl-ureido)-8-methyl-isoquinolin-6-yl]-benzenesulfonamide]
15 | 2 µg/mL (≈ 5.96 µM) | CCNC(=O)Nc1cc2c(-c3ccc(CO)cc3)ccc(C)c2cn1 [Example 34, 1-ethyl-3-[5-(4-hydroxymethyl-phenyl)-8-methyl-isoquinolin-3-yl]-urea]
16 | 2 µg/mL | CCNC(=O)Nc1cc2cccc(Nc3cc(F)ccn3)c2cn1.Cl [Example 158, 1-ethyl-3-[8-(4-fluoro-pyridin-2-ylamino)-isoquinolin-3-yl]-urea hydrochloride]
17 | 0.5 µg/mL (≈ 1.07 µM) | CCNC(=O)Nc1cc2c(-c3ccnc(C)c3)ccc(Nc3cccc(C(=O)N(C)C)c3)c2cn1 [Example 248, 3-[3-(3-ethyl-ureido)-5-(2-methyl-pyridin-4-yl)-isoquinolin-8-ylamino]-N,N-dimethyl-benzamide]
18 | 1 µg/mL (≈ 3.25 µM) | CCNC(=O)Nc1cc2cccc(Nc3cccnc3)c2cn1 [Example 145, 1-ethyl-3-[8-(pyridin-3-ylamino)-isoquinolin-3-yl]-urea]
